Test results taken from patent publication US10471054B2, “CDK1 inhibitors of acetyl chrysin mannich base derivatives, synthesis and use thereof” (priority 2016, dated 2019).

Columns and labels:
BGC-823 and Hep G2 = experiment: H2O2 level in cancer cells, PF1-H2O2 fluorescent probe; type: cell-based; settings: BGC-823 and Hep G2, CH-j 5-10 μM
Experimental: The cells are cancer cells (MCF-7, GBC-823, Hep G2) and normal cells (Liver, COS-7, PBMCs). According to the literature [Scientific Reports, 2015, 5: 13626; Anti-cancer Agents in Medicinal Chemistry, 2016, 16: 914-924.], in vitro cultured cells was given to CH-j 25 μM for 3.5 h, added PF1-H2O2 selective fluorescence probe 10 μM for 0.5 h and detected the concentration of H2O2 in cells, and performed fluorescence imaging by results shown in FIG. 1.
FIG. 1-2: The effect of CH-j/BA-j to Hep G2 and BGC-382 in the levels of H2O2: in which the X-coordinate is the concentration of CH-j/BA-j concentration (μM), and Y-coordinate is the intracellular levels of H2O2 (μM) for 4 h with PF1-H2O2 10 μM by Fluorescence Microplater Reader (488 nm/525 nm).

H-460 = experiment: Anti-cancer cells proliferation activity (MTT, 48 h); type: cell-based; settings: Homo sapiens, NCI-H460, H-460, MTT
Excerpt: (§1) Anti-cancer cells proliferationactivity of in vitro CH-j and CH-f were shown in TABLE 2 for the results of the screening of 5 cancers cells.

Hep G2 = experiment: as above; type: cell-based; settings: Homo sapiens, HepG2
Excerpt: as §1

MCF-7 = experiment: as above; type: cell-based; settings: Homo sapiens, MCF7, MCF-7, MTT
Excerpt: as §1

PC-3 = experiment: as above; type: cell-based; settings: Homo sapiens, PC-3, MTT
Excerpt: as §1

Bcl-2 = Bcl-2 expression in MCF-7; type: cell-based; settings: 10 μM for 24 h
HIF-1α = HIF-1α expression in BGC-823, immune-printing; type: cell-based; settings: 0, 2.5, 5, 10 μM for 1 h, then insulin
Experimental: BGC-823 was treated with 0, 2.5, 5, 10 μM CH-j for 1 h, then the 2 μM insulin was added, and 2 h were cultured, and the cells were collected and lysed.
FIG. 4: CH-j effect on the HIF-1 of BGC-823 was treated with 0, 2.5, 5, 10 μM CH-j for 1 h, then added 0.2 μM insulin culture for 24 h, and the HIF-1α and HIF-1β were determined by the immune imprinting method.

[1] = Protein binding rate and reversible binding rate; type: in vitro ADME; settings: plasma proteins
Experimental: (§2) The combination of drugs and plasma proteins is usually reversible, and the affinity strength is determined by the reversible binding rate of the drug-protein complex. Only free drugs can spread to the tissue through the lipid membrane. By modifying the structure of the drug, the effect of the drug on the target site can be improved by improving the reversible binding rate of the drug-protein complex.
(§3) The acidic part of polyphenol hydroxyl group is combined with lysine alkaline site in albumin structure. The protein binding rate and reversible binding rate of CH-j see TABLE 2.

plasma proteins = experiment: Protein binding rate and reversible binding rate; type: in vitro ADME
Experimental: as §2, §3

[2] = Pharmacokinetics by oral in monkey (urine drug concentration-time curve); type: in vivo; settings: rhesus, monkey (n = 6), 3 mg/kg

- IC50 (H-460): 6.5 ± 1.13 µM
- IC50 (Hep G2): 6 ± 1.5 µM
- IC50 (MCF-7): 5.7 ± 1.24 µM
- IC50 (PC-3): 6.2 ± 1.16 µM
- fraction unbound ([1]; average of 3 concentrations, read-out: Protein binding rate AV (converted)): 0.14
- fraction unbound at 12.5 μg/ml ([1]; drug concentration 12.5 μg/ml): 0.114
- fraction unbound at 25 μg/ml ([1]; drug concentration 25 μg/ml): 0.156
- fraction unbound at 50 μg/ml ([1]; drug concentration 50 μg/ml): 0.151
- Reversie binding rate AV (plasma proteins; average of 3 concentrations): 90.0%
- Reversie binding rate (plasma proteins; drug concentration 12.5 μg/ml): 90.3%
- Reversie binding rate (plasma proteins; drug concentration 25 μg/ml): 89.6%
- Reversie binding rate (plasma proteins; drug concentration 50 μg/ml): 90.1%
- AUC(0-inf) [2]: 20.4 µM·h
Structure (SMILES): CC(=O)c1c(O)c(CN2CCC(O)CC2)c2oc(-c3ccccc3)cc(=O)c2c1O [CH-j, 6-Acetyl-5,7-dihydroxy-8-(4-hydroxy-piperidin-1-ylmethyl)-2-phenyl-chromen-4-one]
- Amount of H2O2 released, fold (BGC-823 and Hep G2): about 4 times
- Maximum level of H2O2 in cells (BGC-823 and Hep G2; 4 h): 35 to 45 µM
- Bcl-2 expression (Bcl-2): Bcl-2 expression can be suppressed
- HIF-1α expression (HIF-1α): inhibited HIF-1α expression in a dose-dependent manner
